Tested on: Human glioblastoma SNB19 cells
Assay: LIVE/DEAD reagent staining to assess compound toxicity at end of migration assay
Type: cell-based
Experimental: The 96 well slides were first coated with 0.1 μg/ml laminin, a motility stimulating substrate, in PBS for 1 hour at 37° C., rinsed three times in PBS, and then treated with 0.1% BSA in PBS for 1 hour at room temperature. Human glioblastoma SNB19 cells were plated at 3,000 cells per sedimentation channel and incubated overnight to allow cell sedimentation and attachment to the substrate. After removal of the manifold, the cells were treated with the compounds either at 0, 0.1 μM, 1 μM or […]. The experiment was done in duplicate with appropriate controls on each slide. After adding the compounds, the diameter of each cell population was initially measured using an inverted microscope and image analysis software (Scion Image Corp, Frederick, Md.). Cells were incubated an additional 72 hours in the presence (or not) of the pharmacological compounds. The diameter of each cell population was again assessed at 24 hours, 48 hours and 72 hours to calculate the overall migration rate. Migration results were reported as the specific radial movement (μm/day) of the cell population. […] At the end of the assay, cells were rinsed with PBS, then treated with LIVE/DEAD reagent staining (Molecular Probes, Eugene, Oreg.) to assess compound toxicity.
FIGS. 1-38 show data for the activity of compounds in the migration assay. […]

c1ccc(C2(NCCCCNCC3CC3CNCCCCNC3(c4ccccc4)CC3)CC2)cc1 (centres unmarked) [SL-11255, 1,2-bis((1-phenylcyclopropylaminobutyl)aminomethyl)cyclopropane]
cytotoxic effects (Live/Dead assay) (10 μM, at time of staining (end of 72 hour assay)): severe cytotoxic effects
toxicity (Live/Dead assay) (lower concentrations (below 10 μM)): not toxic

Source: US20090143456A1, “Polyamine Analogs as Modulators of Cell Migration and Cell Motility” (priority 2005, published 2009)
